Measured values: US20080085888A1, “Therapeutic Combinations” (priority 2006, published 2008)

Assays:
male Long Evans rats = assay: Blockade of D-amphetamine-induced locomotor activity (LMA); format: in vivo, rat; conditions: for attenuation of amphetamine-induced locomotor activity: D-amphetamine 1 mg/kg s.c.
male, Long Evans rats = assay: Spontaneous locomotor activity (sLMA), quetiapine-induced sedation
Source text: I. Attenuation of Quetiapine-Induced Sedation Using Spontaneous Locomotor Activity (sLMA)
Quetiapine is known to have sedative properties in humans. Quetiapine can induce sedation in rats and is manifested in various behaviors including reductions in spontaneous locomotor activity (sLMA). A test compound that increases sLMA in quetiapine treated rats may reduce quetiapine-induced sedation in human subjects.
The general procedure was to assess the effect of a particular drug on sLMA in rats by administering the drug after baseline assessment and then waiting an appropriate amount of time for the drug to achieve significant levels in plasma and brain.
Quetiapine was solubilized in saline plus some drops of 85% lactic acid and sonicated for around 20-30 minutes then adjusted with NaOH 1N for pH ˜4.8 to 5.0. The solution was stirred during the experiment to ensure uniform composition prior to administration. Quetiapine was administered by s.c. injection 15 minutes before testing. The dose volume was 4 ml/kg.
Compound b was dissolved in H2O and administered by oral gavage (p.o.) 30 minutes before testing with a dose volume of 1 ml/kg.
The effect of Compound b alone on sLMA was tested by administering doses of 0.006, 0.019, 0.06 or 0.19 mg/kg by oral gavage (p.o.) 30 minutes before testing. […]
Exploratory activity was monitored and quantified using open field activity systems (hardware and software) purchased from Med Associates. […]
Statistical analysis was made of total distance traveled over the 5 minutes test period for a spontaneous locomotor activity using one-way analysis ANOVA and Turkey's multiple-range analysis. All values are expressed as mean and SD.

CF-1 male mice = assay: Haloperidol-induced catalepsy model of EPS; format: in vivo, mouse
Source text: III. Blockade of Haloperidol-Induced Catalepsy
Haloperidol-induced catalepsy model of EPS: Haloperidol is a typical or first-generation antipsychotic drug that while effective is prone to produce extrapyramidal symptoms (EPS) in humans. Other antipsychotic drugs (e.g. chlorpromazine, risperidone) can also cause EPS in patients and this side effect can limit the use of these drugs. In rodents, drug-induced catalepsy (a trance-like state of waxy immobility) can be used to assess the risk of EPS for antipsychotic drugs. Haloperidol reliably induces catalepsy in mice and rats. Test compounds that reduce catalepsy in haloperidol-treated rats may reduce antipsychotic drug-induced EPS.
Haloperidol-induced catalepsy in mice model: CF-1 male mice (Charles River, 20-30 gm, 10 mice per dose) were dosed orally with compound (b) at 0.06, 0.19, 0.6 and 1.9 mg/kg or vehicle (distilled water). Thirty minutes later, all mice were dosed with 2 mg/kg of haloperidol s.c. At 60 minutes and 4 hours after haloperidol dosing, the experimenter gently placed both forepaws of each animal on a metal bar (4 mm in diameter) that was fixed horizontally 5 cm above the test floor. The length of time (in seconds) during which each mouse maintained the initial forepaw bar position was recorded (cataleptic pose). Maximum cut-off time was 60 seconds. The same experimental design was performed on two consecutive days, and results were combined from both experiments. Therefore, the final results are from groups of 20 mice.

rodent = conditions: cited from earlier work; for effect on haloperidol-induced catalepsy: Levin and Lippiello 1999

For `CN[C@@H](C)C/C=C/c1cncc(OC(C)C)c1.O=C(O)c1ccc(O)cc1` [Compound b, (2S)-(4E)-N-Methyl-5-[3-(5-isopropoxypyridin)yl]-4-penten-2-amine p-hydroxybenzoate], the “reduction of D-amphetamine-induced locomotor activity” value (male Long Evans rats; Compound b alone 0.19 mg/kg p.o.) was “did not significantly reduce”, the “reduction of D-amphetamine-induced locomotor activity” value (male Long Evans rats; combination: Compound b 0.19 mg/kg p.o. with quetiapine 10 mg/kg s.c., vs D-amphetamine alone group) was “did significantly reduce” and the “reduction of D-amphetamine-induced locomotor activity” value (male Long Evans rats; combination: Compound b 0.019 or 0.06 mg/kg p.o. with quetiapine 10 mg/kg s.c.) was “did not significantly reduce”. The “reduction in sLMA compared to vehicle-vehicle controls” value (male, Long Evans rats; Compound b 0.19 mg/kg p.o. administered before quetiapine 40 mg/kg s.c. (combination)) was “did not result in a significant reduction in sLMA”, the “suppression of sLMA” value (male, Long Evans rats; Compound b 0.19 mg/kg p.o. and then vehicle) was “no significant suppression of sLMA” and the “effect on sLMA (total distance traveled)” value (male, Long Evans rats; Compound b alone, 0.006, 0.019, 0.06 and 0.19 mg/kg p.o., 30 min before testing, 5 min test) was “no significant effect”. The “reduction of haloperidol induced catalepsy” value (CF-1 male mice; 60 minute time point, Compound b 0.06, 0.19, 0.6 and 1.9 mg/kg p.o. 30 min before haloperidol 2 mg/kg s.c., P<0.05) was “reduced haloperidol induced catalepsy” and the “reduction of haloperidol induced catalepsy” value (CF-1 male mice; 4 hour time point, 1.9 mg/kg p.o. (only this dose) before haloperidol 2 mg/kg s.c.) was “significant reduction”.

With `C[C@H](N)Cc1ccccc1` [Amphetamine, D-amphetamine] the “locomotor activity in habituated rats” value (male Long Evans rats; D-amphetamine 1 mg/kg s.c. alone, p<0.001) was “significantly increased”.

In the case of `CN1CCCC1c1cccnc1` (centres unmarked) [nicotine], the “effect on haloperidol-induced catalepsy” value (rodent) is given as “did not significantly worsen haloperidol-induced catalepsy, they did not reduce it either” and the “effect on catalepsy in rodent” value (rodent; Sanberg et al. 1993) is given as “can worsen catalepsy”.

With `O=C(CCCN1CCC(O)(c2ccc(Cl)cc2)CC1)c1ccc(F)cc1` [Haloperidol, haloperidol] the “mice with catalepsy of up to 60 seconds” value (CF-1 male mice; haloperidol 2 mg/kg s.c. alone) was 60-90 % of mice.

For `CNCC/C=C/c1cccnc1` [RJR 2403], the “effect on haloperidol-induced catalepsy” value (rodent) is listed as “did not significantly worsen haloperidol-induced catalepsy, they did not reduce it either”.

For `OCCOCCN1CCN(C2=Nc3ccccc3Sc3ccccc32)CC1` [quetiapine, 11-[4-[2-(2-hydroxyethoxy)ethyl]-1-piperazinyl]dibenzo[b,f][1,4]thiazepine], the “attenuation of amphetamine-induced locomotor activity” value (“attenuation” below) (male Long Evans rats; quetiapine alone 10 mg/kg s.c.) was “did not significantly attenuate”, the “attenuation” value (male Long Evans rats; quetiapine alone 10 mg/kg s.c., listed as Quetiapine) was “not” and the “attenuation” value (male Long Evans rats; quetiapine alone 20, 40 and 60 mg/kg s.c.) was “significantly attenuated”. The “threshold for significantly reducing D-amphetamine-induced locomotor activity” value (male Long Evans rats; quetiapine alone s.c.) was 20 mg/kg.
